Series [1] can be described thus: clinic: treatment of asthma and chronic obstructive pulmonary disease. The class given is in vivo.
Series [2] in a line: equilibration in solvents, crystalline form. The class given is physicochemical. The following applies: 1 day at 25° C. in water, ethanol and isopropanol.
A short description of series [3]: stability of the salt. The class given is physicochemical. The following applies: before and after micronisation, with or without excipients, with and without moisture.
Series [4] is described as follows: solubility in ethanol. The format is physicochemical.
A short description of series [5]: hygroscopicity. The format is physicochemical.

Regarding `CCc1cc2c(cc1CC)CC(NC[C@H](O)c1ccc(O)c3[nH]c(=O)ccc13)C2.O=C(O)/C=C\C(=O)O` [(R)-5-[2-(5,6-diethyl-indan-2-ylamino)-1-hydroxyethyl]-8-hydroxy-1H-quinolin-2-one maleate], the “tested in the clinic for the treatment of asthma and chronic obstructive pulmonary disease” value in series [1] (clinic) was “tested favourably”. Besides, the “cough exhibited by certain patients on administration” value in series [1] (particularly first administration) was “cough”.
Turning to `CCc1cc2c(cc1CC)CC(NC[C@H](O)c1ccc(O)c3[nH]c(=O)ccc13)C2` [Example 12, (R)-5-[2-(5,6-diethyl-indan-2-ylamino)-1-hydroxyethyl]-8-hydroxy-1H-quinolin-2-one glycolate], the “change of crystalline form after equilibration” value (shortened to “change of crystalline form”) in series [2] is listed as “no change of crystalline form”. For the same compound, in series [3], the stability entry is “especially stable”. Also, in series [4], the solubility in ethanol result is recorded as “low”. For the same compound, the hygroscopicity result in series [5] is listed as “substantially not hydroscopic”.
With `CC(=O)O.CCc1cc2c(cc1CC)CC(NC[C@H](O)c1ccc(O)c3[nH]c(=O)ccc13)C2` [Example 15, (R)-5-[2-(5,6-diethyl-indan-2-ylamino)-1-hydroxyethyl]-8-hydroxy-1H-quinolin-2-one acetate], in series [2], the “change of crystalline form” value is “no change of crystalline form”. Further, in series [3], the stability result was “especially stable”. Also, in series [4], the solubility in ethanol entry is listed as “low”. The hygroscopicity entry in series [5] was “substantially not hydroscopic”.
With `CCc1cc2c(cc1CC)CC(NC[C@H](O)c1ccc(O)c3[nH]c(=O)ccc13)C2.O=C(O)CC(=O)O` [Example 21, (R)-5-[2-(5,6-diethyl-indan-2-ylamino)-1-hydroxyethyl]-8-hydroxy-1H-quinolin-2-one hydrogen malonate], the “change of crystalline form” value in series [2] is given as “no change of crystalline form”. The stability entry in series [3] was “especially stable”. Besides, the solubility in ethanol entry in series [4] is recorded as “low”. Also, the hygroscopicity entry in series [5] is given as “substantially not hydroscopic”.
